Test results reported in US6329400A, “Formamide compounds as therapeutic agents” (Glaxo Wellcome Inc., priority 1998, dated 2001).

What was measured:
[1] = target: 20 kD truncated collagenase-3 (MMP-13); assay: Matrix Metalloprotease Inhibition Protocol, collagenase-3; format: biochemical; conditions: fluorogenic substrate, pH 7.6; IC50 equivalent to Ki at [S]<<Km
Procedure: (§1) A. Matrix Metalloprotease Inhibition Protocol
(§2) Assays are conducted in a total volume of 0.180 mL assay buffer (200 mM NaCl, 50 mM Tris, 5 mM CaCl2, 10 μM ZnSO4, 0.005% Brij 35, pH 7.6) in each well of a black 96 well microtiter plate. 19 kD collagenase-1, 20 kD collagenase-3, stromelysin-1,and 50 kD gelatinase B concentrations are adjusted to 500 pM, 30 pM, 5 nM, and 100 pM, respectively. A dose response is generated using an eleven-point, 3-fold serial dilution with initial starting test compound concentrations of 100, 10, or 1 μM. Inhibitor and enzyme reactions are incubated for 30 minutes at ambient temperature and then initiated with 10 μM fluorogenic substrate (above). The product formation is measured at Excitation343 /Emission450 nm after 45-180 minutes using a Fluostar SLT fluorescence analyzer. Percent inhibition is calculated at each inhibitor concentration and the data were plotted using standard curve fitting programs. IC50 values were determined from these curves.

stromelysin-1 (MMP-3) = stromelysin-1 (MMP-3) (Homo sapiens, UniProt P08254); assay: Matrix Metalloprotease Inhibition Protocol, stromelysin-1; format: biochemical; conditions: fluorogenic substrate, pH 7.6; IC50 equivalent to Ki at [S]<<Km
Procedure: as §1
as §2, with “curves. Assays were run at low substrate concentration ([S]<<Km) such that the calculated IC50 values are equivalent to Ki within experimental error.” for “curves.”

[2] = system: TNFα release from MonoMac 6 cells; assay: Cell-Based TNFα Release Inhibition Protocol; conditions: Homo sapiens, MONO-MAC-6; LPS/PMA-stimulated MonoMac 6 cells, 37° C., 2 hours
Procedure: C. Cell-Based TNFα Release Inhibition Protocol
This solution is then diluted 1:1000 (40 ng/mL and 120 ng/mL) for use later in the assay. Compounds (10 mM) are serially diluted 1:3 in DMSO. Compound dilutions (20 μL) are added to a sterile round bottom 96 well plate (20 μL:200 μL total volume=1:10 for final concentrations of 50 μM for test compounds). MonoMac 6 cell suspension (130 μL, 1.5×10^6 cells/mL) is then added to each well resulting in 2×10^5 cells/well. LPS/PMA (50 μL) solution is then added to each well to begin stimulation (final concentrations of 10 ng/mL and 30 ng/mL respectively). The plate is incubated at 37° C. for 2 hours then spun at 1,500 rpm for 3 minutes to pellet cells. The supernatant (120 μL/well) is removed to a new round bottom 96 well plate and diluted 1:10 in PBS. Then, 20 μL of the supernatant is transferred to a Cistron TNFα ELISA plate and processed according to the manufacturer's instructions to quantitate levels of TNFα. Percent inhibition of TNFα release is calculated at each inhibitor concentration and the data were plotted using standard curve fitting programs. IC50 values were determined from these curves.

[3] = target: 50 kD truncated gelatinase B (MMP-9); assay: Matrix Metalloprotease Inhibition Protocol, gelatinase B; format: biochemical; conditions: fluorogenic substrate, pH 7.6; IC50 equivalent to Ki at [S]<<Km
Procedure: as §1, §2

[4] = target: T1, 19 kD truncated collagenase-1 (MMP-1) (Homo sapiens, UniProt P03956); assay: Matrix Metalloprotease Inhibition Protocol, collagenase-1; format: biochemical; conditions: fluorogenic substrate, pH 7.6; IC50 equivalent to Ki at [S]<<Km
T1 construct: 19 kD truncated collagenase-1 (MMP-1)
T1 sequence (P03956 101-269 limits assumed): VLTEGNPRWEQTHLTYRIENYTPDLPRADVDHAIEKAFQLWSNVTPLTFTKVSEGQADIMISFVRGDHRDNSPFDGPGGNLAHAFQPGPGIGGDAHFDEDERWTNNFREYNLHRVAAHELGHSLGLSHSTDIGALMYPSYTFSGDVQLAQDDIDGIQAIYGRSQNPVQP
Procedure: as §1
as §2, with “curves. Assays were run at low substrate concentration ([S]<<Km) such that the calculated IC50 values are equivalent to Ki within experimental error.” for “curves.”

serum TNFα = assay: Murine LPS-Stimulated Serum TNF Inhibition Protocol; format: in vivo; conditions: 40 mg/kg, 10 min prior to LPS, mice, 90 min after LPS
Procedure: Murine LPS--Stimulated Serum TNF Inhibition Protocol
The potency of compounds of the invention as inhibitors of serum TNFα elevation in mice treated with lipopolysaccharide (LPS) is determined as follows; a) for subcutaneous (s.c.) administration, test compound is dissolved in DMSO and added to a mixture of 0.9% sodium chloride solution and 30% Trappsol HPB-20 (Cyclodextrin Technology Development Inc., Gainesville, Fla. USA) for a final DMSO concentration of 1%. The dosing solution is sonicated briefly and 0.2 mL is injected subcutaneously 10 min prior to LPS injection, b) for per oral (p.o.) administration, test compounds are formulated in 0.2 mL of PBS and 0.1% Tween 80 and given orally via gavage 10 min prior to LPS administration.
C3/hen female mice are injected intraperitoneally with 200 μg/kg LPS (Escherichia coli, Serotype 0111:B4, Sigma Chemical Co, St. Louis, Mo.) in PBS and sacrificed 90 min later by CO2 asphyxiation. Blood is immediately taken from the caudal vena cava and plasma prepared and frozen at -80° C. Plasma concentrations of TNF are measured by ELISA (Genzyme Co., Cambridge Mass.).

TNFα converting enzyme = target: T2, TNFα converting enzyme (Homo sapiens, UniProt P78536); assay: TNFα Converting Enzyme Inhibition Protocol; format: biochemical; conditions: cell-free, MonoMac 6 membrane preparation; IC50 equivalent to Ki at [S]<<Km
T2 construct: Membrane preparation from MonoMac 6 cells; endogenous in cells; host or cells: MonoMac 6 cells (membrane preparation, subfractionated extract)
Procedure: B. TNFα Converting Enzyme Inhibition Protocol
The reaction is quenched by addition of streptavidin SPA beads (Amersham RPNQ0006), with excess binding capacity relative to substrate, suspended in 250 mM EDTA, pH 8.0. Binding is complete within 15 minutes and plates are counted in a Wallac 1450 Microbeta liquid scintillation counter. Percent inhibition is calculated at each inhibitor concentration and the data were plotted using standard curve fitting programs. IC50 values were determined from these curves.

T2 sequence (P78536 215-824): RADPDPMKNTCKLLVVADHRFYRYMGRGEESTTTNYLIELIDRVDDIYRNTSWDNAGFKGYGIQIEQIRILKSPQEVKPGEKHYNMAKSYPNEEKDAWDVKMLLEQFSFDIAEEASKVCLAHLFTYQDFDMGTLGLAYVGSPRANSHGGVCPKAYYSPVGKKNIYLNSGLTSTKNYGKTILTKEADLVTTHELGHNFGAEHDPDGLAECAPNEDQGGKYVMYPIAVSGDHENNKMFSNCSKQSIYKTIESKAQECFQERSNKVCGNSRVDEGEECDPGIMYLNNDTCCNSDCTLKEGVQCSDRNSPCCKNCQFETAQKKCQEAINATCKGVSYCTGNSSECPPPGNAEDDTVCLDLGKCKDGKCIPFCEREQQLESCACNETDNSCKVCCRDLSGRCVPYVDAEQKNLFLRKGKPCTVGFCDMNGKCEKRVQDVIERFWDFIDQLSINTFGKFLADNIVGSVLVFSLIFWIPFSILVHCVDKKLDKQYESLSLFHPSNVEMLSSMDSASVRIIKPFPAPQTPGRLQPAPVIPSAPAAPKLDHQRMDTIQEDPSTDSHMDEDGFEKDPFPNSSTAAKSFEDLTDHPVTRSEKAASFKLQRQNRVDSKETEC
Chain of stromelysin-1 (MMP-3) (P08254 100-477): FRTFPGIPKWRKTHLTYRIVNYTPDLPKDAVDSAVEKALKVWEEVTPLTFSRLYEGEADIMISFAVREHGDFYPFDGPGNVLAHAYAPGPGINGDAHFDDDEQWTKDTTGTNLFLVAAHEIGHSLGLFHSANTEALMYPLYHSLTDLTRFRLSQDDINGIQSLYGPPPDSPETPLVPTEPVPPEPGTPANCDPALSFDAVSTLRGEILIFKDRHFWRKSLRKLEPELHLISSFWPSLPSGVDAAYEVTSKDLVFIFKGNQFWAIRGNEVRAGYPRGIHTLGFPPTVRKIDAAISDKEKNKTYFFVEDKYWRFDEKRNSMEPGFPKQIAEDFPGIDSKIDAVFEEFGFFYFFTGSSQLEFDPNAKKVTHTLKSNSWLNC

CCC[C@@H]([C@@H](CC(C)Cc1ccccc1)C(=O)N[C@@H](CCCCNC(=O)OCc1ccccc1)C(=O)Nc1nccs1)N(O)C=O (stereo partly drawn) [Example 9, (2R,3S)-3-(Formyl-hydroxyamino)-2-(3-phenyl-2-methyl-1-propyl)hexanoic Acid [(1S)-5-Benzyloxycarbonylamino-1-(1,3-thiazol-2-ylcarbamoyl)-1-pentyl]amide]
Ki [1]: 500 to 1000 nM
Ki (stromelysin-1 (MMP-3)): > 1000 nM
IC50 [2]: 100 to 500 nM
Ki [3]: > 1000 nM
Ki [4]: > 1000 nM

CCC[C@@H]([C@@H](Cc1ccc(C)s1)C(=O)N[C@H](C(=O)Nc1nccs1)[C@@H](C)OCc1ccccn1)N(O)C=O [Example 146, (2R,3S)-3-(Formyl-hydroxyamino)-2-(5-methyl-2-thiophenemethyl)hexanoic Acid [(1S,2R)-2-(2-Pyridylmethoxy)-1-(1,3-thiazol-2-ylcarbamoyl)-1-propyl]amide]
Percentage Inhibition of Serum TNFα (serum TNFα; s.c.): ++ (50%-75%)

CCC[C@@H]([C@@H](CCCc1ccccc1)C(=O)N[C@@H](CCCCNC(=O)OCc1ccccc1)C(=O)Nc1nncs1)N(O)C=O [Example 3, (2R,3S)-3-(Formyl-hydroxyamino)-2-(3-phenyl-1-propyl)hexanoic Acid [(1S)-5-Benzyloxycarbonylamino-1-(1,3,4-thiadiazol-2-yl-carbamoyl)-1-pentyl]amide]
Ki (stromelysin-1 (MMP-3)): < 100 nM
IC50 [2]: 100 to 500 nM
Ki [4]: > 1000 nM
Ki (TNFα converting enzyme): < 100 nM

C[C@@H]([C@@H](CC1CCC(c2ccccc2)CC1)C(=O)N[C@H](C(=O)Nc1nccs1)C(C)(C)C)N(O)C=O (stereo partly drawn) [Example 2, (2R,3S)-3-(Formyl-hydroxyamino)-2-(4-phenylcyclohexylmethyl)butanoic Acid [(1S)-2,2-Dimethyl-1-(1,3-thiazol-2-ylcarbamoyl)-1-propyl]amide]
Ki [1]: < 100 nM
Ki (stromelysin-1 (MMP-3)): 100 to 500 nM
IC50 [2]: > 1000 nM
Ki [3]: 100 to 500 nM
Ki [4]: 500 to 1000 nM
Ki (TNFα converting enzyme): < 100 nM

CCC[C@@H]([C@@H](CC(C)Cc1ccccc1)C(=O)N[C@H](C(=O)Nc1nccs1)C(C)(C)SCCNC(=O)OCc1ccccc1)N(O)C=O (stereo partly drawn) [Example 7, (2R,3S)-3-(Formyl-hydroxyamino)-2-(3-phenyl-2-methyl-1-propyl)hexanoic Acid [(1R)-2-Methyl-2-(2-benzyloxycarbonylamino-1-ethylsulfanyl)-1-(1,3-thiazol-2-ylcarbamoyl)-1-propyl]-amide]
Ki [1]: 500 to 1000 nM
Ki (stromelysin-1 (MMP-3)): > 1000 nM
IC50 [2]: > 1000 nM
Ki [3]: > 1000 nM
Ki [4]: > 1000 nM
Ki (TNFα converting enzyme): 100 to 500 nM

CCC[C@@H]([C@@H](CC(C)Cc1ccccc1)C(=O)N[C@H](C(=O)Nc1nccs1)C(C)(C)C)N(O)C=O (stereo partly drawn) [Example 8, (2R,3S)-3-(Formyl-hydroxyamino)-2-(3-phenyl-2-methyl-1-propyl)hexanoic Acid [(1S)-2,2-Dimethyl-1-(1,3-thiazol-2-ylcarbamoyl)-propyl]amide]
Ki [1]: 100 to 500 nM
Ki (stromelysin-1 (MMP-3)): > 1000 nM
IC50 [2]: > 1000 nM
Ki [3]: > 1000 nM
Ki [4]: > 1000 nM
Ki (TNFα converting enzyme): < 100 nM

CC(C)(C)[C@H](NC(=O)[C@H](CCCc1ccccc1)[C@H](CCC(F)(F)F)N(O)C=O)C(=O)Nc1nccs1 [Example 183, (2R,3S)-3-(Formyl-hydroxyamino)-2-(3-phenyl-1-propyl)-6,6,6-trifluorohexanoic Acid [(1S)-2,2-Dimethyl-1-(1,3-thiazol-2-ylcarbamoyl)-1-propyl]amide]
Ki [1]: < 100 nM
Ki (stromelysin-1 (MMP-3)): 100 to 500 nM
Ki [3]: < 100 nM
Percentage Inhibition of Serum TNFα (serum TNFα; p.o.): ++ (50%-75%)
Ki [4]: > 1000 nM
Ki (TNFα converting enzyme): 100 to 500 nM

CCC[C@@H]([C@@H](CCCc1ccoc1)C(=O)N[C@@H](CCCCNC(=O)OCc1ccccc1)C(=O)Nc1nccs1)N(O)C=O [Example 4, (2R,3S)-3-(Formyl-hydroxyamino)-2-(3-(3-furyl)-1-propyl)hexanoic Acid [(1S)-5-Benzyloxycarbonylamino-1-(1,3-thiazol-2-ylcarbamoyl)-1-pentyl]amide]
Ki [1]: < 100 nM
Ki (stromelysin-1 (MMP-3)): < 100 nM
IC50 [2]: < 100 nM
Ki [3]: 100 to 500 nM
Ki [4]: > 1000 nM
Ki (TNFα converting enzyme): < 100 nM

C[C@@H]([C@@H](CCCc1ccccc1)C(=O)N[C@H](C(=O)Nc1cccnc1)C(C)(C)C)N(O)C=O [Example 1, (2R,3S)-3-(Formyl-hydroxyamino)-2-(3-phenyl-1-propyl)butanoic Acid [(1S)-2,2-Dimethyl-1-(pyridine-3-ylcarbamoyl)-1-propyl]amide]
Ki [1]: < 100 nM
Ki (stromelysin-1 (MMP-3)): < 100 nM
Ki [3]: < 100 nM
Ki [4]: < 100 nM
Ki (TNFα converting enzyme): 500 to 1000 nM

C[C@@H]([C@@H](CCCc1ccc(Cl)cc1)C(=O)N[C@H](C(=O)Nc1cccnc1)C(C)(C)C)N(O)C=O [Example 195, (2R,3S)-3-(Formyl-hydroxyamino)-2-(3-(4-chlorophenyl)-1-propyl)butanoic Acid [(1S)-2,2-Dimethyl-1-(pyridine-3-ylcarbamoyl)-1-propyl]amide]
Ki [1]: < 100 nM
Ki (stromelysin-1 (MMP-3)): < 100 nM
Ki [3]: < 100 nM
Ki [4]: < 100 nM
Ki (TNFα converting enzyme): > 1000 nM

CCC[C@@H]([C@@H](CCCc1ccoc1)C(=O)N[C@H](C(=O)Nc1nccs1)C(C)(C)C)N(O)C=O [Example 5, (2R,3S)-3-(Formyl-hydroxyamino)-2-(3-(3-furyl)-1-propyl)hexanoic Acid [(1S)-2,2-Dimethyl-1-(1,3-thiazol-2-ylcarbamoyl)-1-propyl]amide]
Ki [1]: < 100 nM
Ki (stromelysin-1 (MMP-3)): < 100 nM
IC50 [2]: 100 to 500 nM
Ki [3]: < 100 nM
Ki [4]: 500 to 1000 nM

CCC[C@@H]([C@H](COCc1ccccc1)C(=O)N[C@@H](CCCCNC(=O)OCc1ccccc1)C(=O)Nc1nccs1)N(O)C=O [Example 6, (2R,3S)-3-(Formyl-hydroxyamino)-2-(benzyloxymethyl)hexanoic Acid [(1S)-5-Benzyloxycarbonylamino-1-(1,3-thiazol-2-ylcarbamoyl)-1-pentyl]amide]
Ki [1]: 100 to 500 nM
Ki (stromelysin-1 (MMP-3)): 100 to 500 nM
IC50 [2]: > 1000 nM
Ki [3]: > 1000 nM
Ki [4]: > 1000 nM
Ki (TNFα converting enzyme): < 100 nM
